# According to US20230277654A1, “STABLE FORMULATIONS OF CYTOMEGALOVIRUS” (priority 2017, published 2023):
# Key:
# rdCMV = experiment: Shield-1 dependence of rdCMV replication; assay type: cell-based, cytomegalovirus; settings: rdCMV in ARPE-19 cells and other human primary cells
# Description: Conversely, rdCMV should not replicate substantially in the absence of Shield-1. The quality of a replication defective mechanism is judged by how stringent the control is under the conditions not permissive for viral replication, i.e., the infectious titers of progeny virions under these conditions. The rdCMV described herein cannot replicate substantially (either in cell culture or within a patient) without Shield-1 present. Its replication in ARPE-19 cells and other types of human primary cells is conditional, and a molar concentration of Shield-1 greater than 0.1 μM, preferable at least 2 μM, in the culture medium is required to sustain viral replication.
# FKBP = settings: Clackson et al., 1998; cited from earlier work
smiles,measurement,setting,value
CC[C@H](C(=O)N1CCCC[C@H]1C(=O)O[C@H](CCc1ccc(OC)c(OC)c1)c1cccc(OCCN2CCOCC2)c1)c1cc(OC)c(OC)c(OC)c1 [Shield-1],molar concentration in the culture medium required to sustain viral replication,rdCMV,greater than 0.1 μM
same,binding to the F36V derivative compared to wild-type FKBP (tighter),FKBP,"about 1,000 fold"
